In patent US20250302788A1, “COMPOSITION COMPRISING CREATINE FOR USE IN THE TREATMENT OF POST VIRAL FATIGUE SYNDROME” (Alzchem Trostberg GmbH, priority 2022, published 2025):
Where two headings read alike, the source gives them in different places.

Key:
Post-COVID patients = experiment: MFI-20 fatigue test, Example 2; assay type: in vivo, human; details: plus breathing exercise
Procedure: (§1) The patient-reported outcomes for COVID-19-related signs and symptoms (e.g. headache, concentrating difficulties, anosmia, ageusia) were evaluated with VAS scale. Fatigue, comprising the conditions of the group general fatigue, physical fatigue, metal fatigue, reduced activity, and reduced motivation, was evaluated with a multidimensional fatigue inventory test (MFI-20 test, Smets E. M. et al., J. Psychosom. Res. 1995, 39 (3), 315).

[1] = both, human, in vivo, 3 months
[2] = tested on: patients suffering under Post-COVID; experiment: MFI-20 multidimensional fatigue inventory test, Example 1; assay type: in vivo, human; details: 4 g/day
Procedure: as §1

[3] = both, human, in vivo
PCFS patients [4] = experiment: Incremental treadmill test until exhaustion, Example 3; assay type: in vivo, human; details: for Change of time to exhaustion: post-administration (8 weeks) vs baseline
Procedure: In addition the time to exhaustion of the patients was evaluated by an incremental test until exhaustion on a motorized treadmill.

[5] = tested on: patients suffering under Post-COVID; experiment: VAS scale of COVID-19-related signs and symptoms, Example 1; assay type: in vivo, human; details: 4 g/day
Procedure: as §1

PCFS patients [6] = experiment: MFI-20 fatigue test, Example 3; assay type: in vivo, human
[7] = tested on: patients suffering under Post-COVID; experiment: Reported side effects, Example 1; assay type: in vivo, human; details: 4 g creatine monohydrate/day, up to 6 months
Procedure: The number of participants who were randomly assigned, received intended treatment, and were analyzed for the primary outcome at this time was twelve in total, six in experimental group and six in control group.

[8] = normal healthy population; cited from earlier work
PCFS patients [9] = details: in vivo
[10] = tested on: patients suffering under Post-COVID; experiment: Incremental treadmill test until exhaustion, Example 1; assay type: in vivo, human; details: for Time to exhaustion: 4 g/day
Procedure: In addition the time to exhaustion of the patients was evaluated by an incremental test until exhaustion on a motorized treadmill. Speed and gradient of the treadmill are increased every third minute, starting at 2.7 km/h (1.7 miles per hour) at a 10% gradient and rising at stage 7 to 9.7 km/h (6 miles per hour) at 22% gradient (Will P. M. and Walter J. D., Am Heart. J., 1999 December, 138, 1033).

[11] = human, in vivo
PCFS patients [12] = assay type: in vivo, human
[13] = 8 weeks vs baseline, listed as EXP 2, monohydrate
[14] = 8 weeks vs baseline, monohydrate

## CN(CC(=O)O)C(=N)N.O [Creatine + Breathing Exercise, creatine monohydrate]
Post-COVID patients; 3 months
  General fatigue (MFI-20 score): 12.3
  Mental fatigue (MFI-20 score): 11.5
  Physical fatigue (MFI-20 score): 12.2
  Reduced activity (MFI-20 score): 12.8
  Reduced motivation (MFI-20 score): 12.8
Post-COVID patients; Baseline
  General fatigue (MFI-20 score): 11.5
  Mental fatigue (MFI-20 score): 11.8
  Physical fatigue (MFI-20 score): 12.3
  Reduced activity (MFI-20 score): 12.5
  Reduced motivation (MFI-20 score): 13.5
[1]
  Cohen's effect size (d) for creatine increment, right frontal grey matter: 1.76
  Cohen's effect size (d) for creatine increment, vastus medialis muscle: 0.77

## CN(CC(=O)O)C(=N)N.O [Creatine, creatine monohydrate]
[2]; 3 months
  General fatigue (MFI-20 score): 11.3
  Mental fatigue (MFI-20 score): 11.2
  Physical fatigue (MFI-20 score): 12.7
  Reduced activity (MFI-20 score): 12.0
  Reduced motivation (MFI-20 score): 13.0
[2]; 6 months
  General fatigue (MFI-20 score): 12.7
  Mental fatigue (MFI-20 score): 10.5
  Physical fatigue (MFI-20 score): 13.2
  Reduced activity (MFI-20 score): 12.5
  Reduced motivation (MFI-20 score): 12.5
[2]; Baseline
  General fatigue (MFI-20 score): 12.0
  Mental fatigue (MFI-20 score): 12.3
  Physical fatigue (MFI-20 score): 13.5
  Reduced activity (MFI-20 score): 11.5
  Reduced motivation (MFI-20 score): 13.0
[3]
  Total creatine, Left frontal grey matter: 6.6 ± 0.6 mM
  Total creatine, Left frontal white matter: 6.7 ± 0.7 mM
  Total creatine, Left mesial grey matter: 8.1 ± 1.3 mM
  Total creatine, Left paracentral grey matter: 6.8 ± 0.8 mM
  Total creatine, Left parietal white matter: 7.5 ± 1.6 mM
  Total creatine, Left precentral white matter: 6.4 ± 1.0 mM
  Total creatine, Right frontal grey matter: 6.6 ± 1.1 mM
  Total creatine, Right frontal white matter: 6.7 ± 1.0 mM
  Total creatine, Right mesial grey matter: 8.4 ± 1.4 mM
  Total creatine, Right paracentral grey matter: 7.2 ± 0.8 mM
  Total creatine, Right parietal white matter: 7.6 ± 1.9 mM
  Total creatine, Right precentral white matter: 6.8 ± 0.9 mM
  Total creatine, Thalamus: 5.1 ± 1.0 mM
  Total creatine, Vastus medialis muscle: 29.0 ± 5.6 mM
[3]; 8 weeks
  Cohen's effect size (d) for creatine increase, parietal mesial grey matter: 0.65
  Total creatine, Left frontal grey matter: 6.5 ± 0.5 mM
  Total creatine, Left frontal white matter: 6.8 ± 0.9 mM
  Total creatine, Left mesial grey matter: 8.6 ± 1.1 mM
  Total creatine, Left paracentral grey matter: 6.9 ± 0.9 mM
  Total creatine, Left parietal white matter: 7.8 ± 1.3 mM
  Total creatine, Left precentral white matter: 6.7 ± 0.8 mM
  Total creatine, Right frontal grey matter: 6.7 ± 1.0 mM
  Total creatine, Right frontal white matter: 7.0 ± 1.1 mM
  Total creatine, Right mesial grey matter: 9.2 ± 1.0 mM
  Total creatine, Right paracentral grey matter: 7.6 ± 1.6 mM
  Total creatine, Right parietal white matter: 7.7 ± 1.9 mM
  Total creatine, Right precentral white matter: 7.4 ± 1.1 mM
  Total creatine, Thalamus: 5.3 ± 0.9 mM
  Total creatine, Vastus medialis muscle: 30.4 ± 5.2 mM
PCFS patients [4]; 8 weeks
  Time to exhaustion: 844 s
PCFS patients [4]; Baseline
  Time to exhaustion: 824 s
PCFS patients [4]
  Change of time to exhaustion: 20 s
[5]; 3 months
  Ageusia (VAS scale): 0.2
  Anosmia (VAS scale): 1.0
  Concentrating difficulties (VAS scale): 1.5
  Headache (VAS scale): 0.8
[5]; 6 months
  Ageusia (VAS scale): 0.0
  Anosmia (VAS scale): 0.8
  Concentrating difficulties (VAS scale): 0.0
  Headache (VAS scale): 0.5
[5]; Baseline
  Ageusia (VAS scale): 5.0
  Anosmia (VAS scale): 5.0
  Concentrating difficulties (VAS scale): 4.0
  Headache (VAS scale): 3.8
PCFS patients [6]; 8 weeks
  General fatigue (MFI-20 score): 12.0
  Mental fatigue (MFI-20 score): 12.2
  Physical fatigue (MFI-20 score): 11.4
  Reduced activity (MFI-20 score): 12.0
  Reduced motivation (MFI-20 score): 10.3
PCFS patients [6]; 8 weeks vs baseline
  Cohen's effect (d), General Fatigue: 0.44
  Cohen's effect (d), Mental Fatigue (MF): 1.32
  Cohen's effect (d), Physical Fatigue (PF): 0.83
  Cohen's effect (d), Reduced Motivation (RM): 1.07
  Cohen's effect (d), Reduced activity (RA): 1.52
PCFS patients [6]; Baseline
  General fatigue (MFI-20 score): 12.6
  Mental fatigue (MFI-20 score): 13.4
  Physical fatigue (MFI-20 score): 12.2
  Reduced activity (MFI-20 score): 13.6
  Reduced motivation (MFI-20 score): 11.6
[7]
  Side effects: no major side effects
[8]
  Increase of creatine in the brain after creatine supplementation: ≤ 5%
PCFS patients [9]
  Side effects / tolerability: well-tolerated
[10]; 3-months
  Time to exhaustion: 922 s
[10]; 6-months
  Time to exhaustion: 959 s
[10]; Baseline
  Time to exhaustion: 894 s
[10]; placebo group remains at stage 5
  Stage achieved in the treadmill test: stage 6
[10]; vs baseline, compared to 2.1% after placebo intake
  Increase of time to exhaustion: 7.3%
[11]; 0 months
  Total creatine, Vastus medialis muscle: 28.2 ± 3.0 mM
[11]; 3 months
  Cohen's effect size (d), brain creatine level, left parietal white matter: 0.92
  Cohen's effect size (d), brain creatine level, parietal white matter: 1.99
  Cohen's effect size (d), brain creatine level, right frontal white matter: 1.25
  Cohen's effect size (d), brain creatine level, right paracentral grey matter: 0.88
  Cohen's effect size (d), brain creatine level, right parietal messial grey matter: 1.17
  Cohen's effect size (d), brain creatine level, thalamus: 0.82
  Total creatine, Vastus medialis muscle: 30.0 ± 4.2 mM
[11]; 6 months
  Cohen's effect size (d), brain creatine level, left parietal messial grey matter: 0.84
  Cohen's effect size (d), brain creatine level, left parietal white matter: 1.17
  Cohen's effect size (d), brain creatine level, parietal white matter: 1.74
  Cohen's effect size (d), brain creatine level, right frontal white matter: 1.32
  Cohen's effect size (d), brain creatine level, right parietal messial grey matter: 1.06
  Total creatine, Vastus medialis muscle: 30.6 ± 3.4 mM
PCFS patients [12]; 8 weeks
  Ageusia (VAS scale): 0.2
  Anosmia (VAS scale): 0.0
  Concentrating difficulties (VAS scale): 2.2
  Headache (VAS scale): 0.8
  Malaise (VAS scale): 1.0
PCFS patients [12]; 8 weeks vs baseline
  Cohen's effect (d), Ageusia (AGE): 0.34
  Cohen's effect (d), Breathing Difficulties (BRD): 0.96
  Cohen's effect (d), Headache (HAD): 0.93
PCFS patients [12]; [13]
  Cohen's effect (d), Difficulties concentrating (DCN): 1.37
  Cohen's effect (d), Malaise (MAL): 1.81
PCFS patients [12]; [14]
  Cohen's effect (d), Difficulties concentrating (DCN): > 0.80
  Cohen's effect (d), Malaise (MAL): > 0.80
PCFS patients [12]; Baseline
  Ageusia (VAS scale): 0.0
  Anosmia (VAS scale): 0.0
  Concentrating difficulties (VAS scale): 4.2
  Headache (VAS scale): 3.2
  Malaise (VAS scale): 4.2

## O=C[C@H](O)[C@@H](O)[C@H](O)[C@H](O)CO [Glucose, glucose, reference compound]
[3]
  Total creatine, Left frontal grey matter: 6.8 ± 0.4 mM
  Total creatine, Left frontal white matter: 5.8 ± 0.4 mM
  Total creatine, Left mesial grey matter: 7.6 ± 0.7 mM
  Total creatine, Left paracentral grey matter: 7.0 ± 0.9 mM
  Total creatine, Left parietal white matter: 5.4 ± 0.6 mM
  Total creatine, Left precentral white matter: 5.6 ± 0.6 mM
  Total creatine, Right frontal grey matter: 7.0 ± 0.9 mM
  Total creatine, Right frontal white matter: 5.6 ± 0.8 mM
  Total creatine, Right mesial grey matter: 7.3 ± 0.6 mM
  Total creatine, Right paracentral grey matter: 6.4 ± 0.7 mM
  Total creatine, Right parietal white matter: 5.2 ± 0.7 mM
  Total creatine, Right precentral white matter: 5.4 ± 0.6 mM
  Total creatine, Thalamus: 5.5 ± 0.5 mM
  Total creatine, Vastus medialis muscle: 30.1 ± 12.7 mM
[3]; 8 weeks
  Total creatine, Left frontal grey matter: 6.3 ± 0.9 mM
  Total creatine, Left frontal white matter: 5.6 ± 1.0 mM
  Total creatine, Left mesial grey matter: 7.4 ± 0.6 mM
  Total creatine, Left paracentral grey matter: 6.9 ± 0.7 mM
  Total creatine, Left parietal white matter: 5.3 ± 0.5 mM
  Total creatine, Left precentral white matter: 5.6 ± 0.5 mM
  Total creatine, Right frontal grey matter: 7.0 ± 0.7 mM
  Total creatine, Right frontal white matter: 5.6 ± 0.8 mM
  Total creatine, Right mesial grey matter: 7.0 ± 1.0 mM
  Total creatine, Right paracentral grey matter: 6.2 ± 1.1 mM
  Total creatine, Right parietal white matter: 5.2 ± 0.7 mM
  Total creatine, Right precentral white matter: 5.3 ± 0.7 mM
  Total creatine, Thalamus: 5.5 ± 0.7 mM
  Total creatine, Vastus medialis muscle: 28.5 ± 9.2 mM
PCFS patients [4]; 8 weeks
  Time to exhaustion: 908 s
PCFS patients [4]; Baseline
  Time to exhaustion: 915 s
PCFS patients [4]
  Change of time to exhaustion: -7 s
PCFS patients [6]; 8 weeks
  General fatigue (MFI-20 score): 11.6
  Mental fatigue (MFI-20 score): 11.0
  Physical fatigue (MFI-20 score): 12.6
  Reduced activity (MFI-20 score): 12.6
  Reduced motivation (MFI-20 score): 10.8
PCFS patients [6]; Baseline
  General fatigue (MFI-20 score): 12.0
  Mental fatigue (MFI-20 score): 11.4
  Physical fatigue (MFI-20 score): 12.8
  Reduced activity (MFI-20 score): 12.6
  Reduced motivation (MFI-20 score): 10.0
PCFS patients [12]; 8 weeks
  Ageusia (VAS scale): 0.6
  Anosmia (VAS scale): 1.0
  Concentrating difficulties (VAS scale): 3.0
  Headache (VAS scale): 2.8
  Malaise (VAS scale): 3.0
PCFS patients [12]; Baseline
  Ageusia (VAS scale): 2.2
  Anosmia (VAS scale): 2.6
  Concentrating difficulties (VAS scale): 4.4
  Headache (VAS scale): 3.8
  Malaise (VAS scale): 4.6
